From patent US20080242716A1, “Ion Channel Modulators” (priority 2004, published 2008)

Test system: calcium channel (e.g., L-type, N-type, etc.) currents
Experiment: HEK assay, whole-cell voltage clamp in transiently transfected HEK-293T/17 cells
Type: cell-based
Conditions: whole-cell patch clamp, steady-state concentration-response
Description: HEK-293T/17 cells are transiently transfected in a similar manner as described in FuGENE 6 Package Insert Version 7, April 2002, Roche Applied Science, Indianapolis, Ind. The cells are plated at 2.5×10^5 cells in 2 mL in a 6-well plate in incubator for one night and achieve a 30˜40% confluence. In a small sterile tube, add sufficient serum-free medium as diluent for FuGENE Transfection Reagent (Roche Applied Science, Indianapolis, Ind.), to a total volume of 100 μL. Add 3 μL of FuGENE 6 Reagent directly into this medium. The mixture is tapped gently to mix. 2 μg of DNA solution (0.8-2.0 μg/μL) is added to the prediluted FuGENE 6 Reagent from above. The DNA/Fugene 6 mixture is gently pipeted to mix the contents and incubated for about 15 minutes at room temperature. The complex mixture is then added to the HEK-293T/17 cells, distributing it around the well, and swirled to ensure even dispersal. The cells are returned to the incubator for 24 hrs. The transfected cells are then replated at density 2.5×10^5 in a 35 mm dish with 5 glass coverslips and grow in low serum(1%) media for 24 hrs. Coverslips with isolated cells are then transferred into chamber and calcium channel (e.g., L-type, N-type, etc.) current or other currents for counter screening are recorded from the transiently transfected HBEK-293T/17 cells. […]

IC50: 252 nM
SMILES: Fc1ccc(Cc2nc(Cc3nc4ccccc4[nH]3)cn2-c2ccc(Cl)cc2)cc1 [Compound 2, 2-[1-(4-Chloro-phenyl)-2-(4-fluoro-benzyl)-1H-imidazol-4-ylmethyl]-1H-benzoimidazole]
